# Experimental data reported in US20240100065A1, “METHODS FOR TREATING RECEPTOR-INTERACTING PROTEIN KINASE 1-MEDIATED DISEASES” (Genzyme Corporation, priority 2022, published 2024).
# Where two headings read alike, the source gives them in different places.
# Legend:
# pS166-RIPK1 = target: T1, pS166-RIPK1 (Homo sapiens, UniProt Q13546); experiment: pS166-RIPK1 inhibition in vitro in microglia; type: cell-based
# T1 construct: endogenous in cells
# T1 sequence (Q13546 1-671): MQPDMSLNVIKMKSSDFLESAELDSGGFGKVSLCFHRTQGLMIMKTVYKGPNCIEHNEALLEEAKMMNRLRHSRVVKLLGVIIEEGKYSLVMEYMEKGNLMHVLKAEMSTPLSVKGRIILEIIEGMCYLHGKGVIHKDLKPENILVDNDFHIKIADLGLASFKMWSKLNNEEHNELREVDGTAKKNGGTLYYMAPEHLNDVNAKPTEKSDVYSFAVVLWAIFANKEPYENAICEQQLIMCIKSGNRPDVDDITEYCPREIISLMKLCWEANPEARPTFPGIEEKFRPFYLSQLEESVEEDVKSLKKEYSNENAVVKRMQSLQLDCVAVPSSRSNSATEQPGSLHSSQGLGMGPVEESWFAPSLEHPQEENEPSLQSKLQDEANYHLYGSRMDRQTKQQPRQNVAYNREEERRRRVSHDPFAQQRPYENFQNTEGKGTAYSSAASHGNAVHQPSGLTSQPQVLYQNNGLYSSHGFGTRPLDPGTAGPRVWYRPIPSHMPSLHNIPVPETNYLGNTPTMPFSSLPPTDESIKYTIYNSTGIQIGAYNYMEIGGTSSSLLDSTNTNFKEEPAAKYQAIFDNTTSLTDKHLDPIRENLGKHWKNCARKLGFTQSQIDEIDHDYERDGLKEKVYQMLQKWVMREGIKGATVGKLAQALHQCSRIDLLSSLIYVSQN
# [1] = target: T2, pS166-RIPK1 in human PBMC lysates (Homo sapiens, UniProt Q13546); experiment: Inhibition of pS166-RIPK1 in PBMC lysates (peripheral target engagement); type: in vivo; settings: for pS166-RIPK1 percent change from baseline: Day15-T24h
# T2 construct: Human PBMC are a primary cell type that express endogenous RIPK kinase; endogenous in cells; host or cells: human PBMC isolated from blood of healthy participants
# T2 sequence (Q13546 1-671): T1 sequence (Q13546 1-671)
# Text: Activity of RIPK1 when stimulated can be detected by an increase in autophosphorylation at serine 166 in the RIPK1 protein. Human PBMC are a primary cell type that express endogenous RIPK kinase. Therefore, the ability of Compound 1 to inhibit RIPK1 kinase activity, as measured by the inhibition of pS166-RIPK1 in prepared PBMC lysates isolated from blood samples, was investigated to assess the peripheral target engagement; pS166-RIPK1 levels in human PBMC lysates and percentage of change from baseline were calculated. In Part 1a study, six blood samples (at pre-dose, at 1, 3, 5, 8 hours on Day 1, and at 24 hours on Day 2) for pS166-RIPK1 level were collected per participant. In Part 2 study, blood samples were collected at timepoint (predose/baseline, D7 and D14 T0 (prior to dosing), at the followings timepoints at D14: T1h, T3H, T6H, T8h, then at D15/T24H and D16/T48H. Interquartile range (IQR: Q1-Q3) and geometric mean were added to the usual descriptive statistics.
# Levels of pS166-RIPK1 and percentage of change from baseline were summarized descriptively by dose level group and time point. PD population includes participants included in the safety population with no major or critical deviations related to IMP and/or pharmacodynamic (PD) measurements, for whom the PD data are considered sufficient and interpretable will be included in the pharmacodynamic population. Scatterplots were provided for pS166-RIPK1 data versus PK plasma concentration in the PK/PD population. For each participant, the percent change compared to their baseline was evaluated at multiple timepoints up to 24 hours in Part 1a and up to 48 hours in Part 2.
# The amount of phosphorylation at serine 166 in RIPK1 protein (pS166-RIPK1) was measured in PBMC lysates prepared from blood samples. Variability in baseline values between individuals was observed across the treatment groups. For each participant, the percent change compared to their baseline was evaluated at multiple timepoints. A negative value for percent change indicates an inhibition of phosphorylation of RIPK1 at-serine166 (pS166-RIPK1).
# [2] = CSF concentration, CSF-to-unbound plasma concentration ratio (Part 1b); type: in vivo, healthy adult participants (human); settings: human; for Kp: oral
# Description: Compound 1 concentrations in CSF were measured after single oral dosing in two dedicated cohorts in Part 1b. Lumbar puncture was performed for CSF collection and only one CSF sample per participant was collected on Day 1. Given the limited number of CSF PK samples that were collected in this study, CSF PK parameters were not determined; instead, Compound 1 concentrations in CSF were reported and concentration ratio between CSF and unbound plasma was calculated.
# PK population included all participants exposed to Compound 1 with no major or critical deviations related to Compound 1 and for whom PK data were considered sufficient and interpretable. PK parameters were summarized by descriptive statistics for each dose level group. Distribution of Tmax values was represented by histogram plots for each dose level group. In Part 1a, dose proportionality was assessed using a linear model on Cmax, AUClast and AUC. In Part 2, all PK analyses were performed separately for each regimen (OD and BID). Steady state was assessed on Ctrough using a non-linear model. Accumulation was assessed using a linear model on log-transformed accumulation ratio. Dose proportionality was assessed using a power model on Cmax and AUCtau on Day 1 and Day 14, separately. Variance components of log-transformed Cmax and AUCtau were estimated using a linear model. In Part 1b, CSF concentration was described by dose level group and CSF to plasma unbound concentration ratios calculated were described in the same way. 4β-hydroxycholesterol on Day 14 versus Day 1 pre-dose concentration ratios were summarized using descriptive statistics by dose level group and point estimates with 90% confidence interval (90% CI) for the geometric mean of the log-transformed Day14/Day1 ratio was calculated in Part 2.
compound,measurement,setting,value
"CC(C)(C(=O)N1CCOc2c(C#N)cncc2C1)C(F)F [Compound 1, 4-(3,3-difluoro-2,2-dimethyl-propanoyl)-3,5-dihydro-2H-pyrido[3,4-f] [1,4]oxazepine-9-carbonitrile]",EC90,pS166-RIPK1,64 nM
same,Median inhibition of pS166-RIPK1,"[1]; Part 1a 20 mg, 1 hr post dose",90.43%
same,"Median inhibition of pS166-RIPK1, peak","[1]; Part 1a 20 mg, 5 hrs",96.63%
same,"Median inhibition of pS166-RIPK1, maintained","[1]; Part 1a 20 mg, over 24 hours",greater than 94%
same,Peak median inhibition of pS166-RIPK1,"[1]; Part 1a 30 mg, 3 hr, one replicate",91.48%
same,Median inhibition of pS166-RIPK1,"[1]; Part 1a 30 mg, 24 hours post dose, one replicate",80.16%
same,Peak median inhibition of pS166-RIPK1,"[1]; Part 1a 40 mg, 1 hr post dose, 4 participants",86.69%
same,Median inhibition of pS166-RIPK1,"[1]; Part 1a, all dose groups (10, 20, 30, 40 mg), 1 hour up to 5 hours post dose",greater than 80%
same,pS166-RIPK1 percent change from baseline,"[1]; Part 2, 15 mg BID",−80.29%
same,pS166-RIPK1 percent change from baseline,"[1]; Part 2, 20 mg BID",−97.76%
same,Inhibition of pS166-RIPK1,"[1]; Part 2, all dose level groups (10 mg QD to 20 mg BID), Ctrough Day 7 up to 24 hours post-last dosing",~90%
same,Emax at 10 mg,"[1]; Part 2 Day 14, 10 mg QD, 6 hours post-last morning dose, n=5, read-out: Median inhibition of pS166-RIPK1, maximal effect",99%
same,Emax at 15 mg,"[1]; Part 2 Day 14, 15 mg BID, 6 hours post-last morning dose, n=7, read-out: Median inhibition of pS166-RIPK1, maximal effect",92.8%
same,Emax at 20 mg,"[1]; Part 2 Day 14, 20 mg BID, 8 hours post-last morning dose, n=3, read-out: Median inhibition of pS166-RIPK1, maximal effect",99.2%
same,Emax at 20 mg,"[1]; Part 2 Day 14, 20 mg QD, 6 hours post-last morning dose, n=4, read-out: Median inhibition of pS166-RIPK1, maximal effect",96.5%
same,EC90,[1]; in vivo in PBMC,38 nM
same,"CSF/unbound plasma ratio, mean values",[2],~1.0
same,Kp,"[2]; CSF / unbound plasma, Part 1b single dose fed, [T1H-T3H], read-out: CSF-to-unbound Plasma concentration ratio, geometric mean",0.817
same,Kp,"[2]; CSF / unbound plasma, Part 1b single dose fed, [T1H-T3H], read-out: CSF-to-unbound Plasma concentration ratio, mean",0.84
same,Kp,"[2]; CSF / unbound plasma, Part 1b single dose fed, [T1H-T3H], read-out: CSF-to-unbound Plasma concentration ratio, median",0.732
same,Kp,"[2]; CSF / unbound plasma, Part 1b single dose fed, [T4H-T6H], read-out: CSF-to-unbound Plasma concentration ratio, geometric mean",0.755
same,Kp,"[2]; CSF / unbound plasma, Part 1b single dose fed, [T4H-T6H], read-out: CSF-to-unbound Plasma concentration ratio, mean",0.804
same,Kp,"[2]; CSF / unbound plasma, Part 1b single dose fed, [T4H-T6H], read-out: CSF-to-unbound Plasma concentration ratio, median",0.825
same,Kp,"[2]; CSF / unbound plasma, Part 1b single dose fed, [T5H-T16H], read-out: CSF-to-unbound Plasma concentration ratio, geometric mean",1.27
same,Kp,"[2]; CSF / unbound plasma, Part 1b single dose fed, [T5H-T16H], read-out: CSF-to-unbound Plasma concentration ratio, mean",1.27
same,Kp,"[2]; CSF / unbound plasma, Part 1b single dose fed, [T5H-T16H], read-out: CSF-to-unbound Plasma concentration ratio, median",1.31
same,Kp,"[2]; CSF / unbound plasma, time intervals [T1H-T3H] or [T4H-T6H], read-out: Ratio CSF to unbound plasma",~0.8
same,Kp,"[2]; CSF and unbound plasma, read-out: CSF/unbound plasma ratio, mean values",~1
same,Kp,"[2]; CSF and unbound plasma, time interval [T8H-T10H], read-out: Ratio CSF to unbound plasma",~1.3
